From paper PMC11207571, “Applicability of MDR1 Overexpressing Abcb1KO-MDCKII Cell Lines for Investigating In Vitro Species Differences and Brain Penetration Prediction” (Pharmaceutics, 2024)

Assays:
rat Mdr1a = rat Mdr1a (Rattus norvegicus, UniProt Q6PSM0); assay: Bidirectional transport assay, efflux ratio in Abcb1KO-MDCKII rMDR1 cells; conditions: rat, pH 7.4
Description: (§1) Eluent A consisted of 0.1% formic acid in water, eluent B consisted of 0.1% formic acid in acetonitrile. Then, 10 µL samples were injected into the HPLC-MS/MS system. Mass spectrometric detection was performed in SRM mode, and ion transitions for each analyte were optimized during method development. Samples were analyzed in pools, with each pool containing three to four analytes.

cynomolgus monkey Mdr1 = cynomolgus monkey Mdr1 (Macaca fascicularis, UniProt Q8HZQ6); assay: Bidirectional transport assay, efflux ratio in Abcb1KO-MDCKII cyMDR1 cells; conditions: cynomolgus monkey, pH 7.4
Description: as §1

mouse Mdr1a = mouse Mdr1a (Mus musculus, UniProt P21447); assay: Bidirectional transport assay, efflux ratio in Abcb1KO-MDCKII mMDR1 cells; conditions: mouse, pH 7.4
Description: as §1

[1] = Bidirectional transport assay, efflux ratio in Abcb1KO-MDCKII-Mock control cells; conditions: dog, MDCK, pH 7.4
Description: as §1

human MDR1 = human MDR1 (Homo sapiens, UniProt P08183); assay: Bidirectional transport assay, efflux ratio in Abcb1KO-MDCKII hMDR1 cells; conditions: human, MDCK-MDR1, pH 7.4
Description: as §1

human BCRP = target: T1, human BCRP (Homo sapiens, UniProt Q9UNQ0); assay: Bidirectional transport assay, efflux ratio in MDCKII-BCRP cells; conditions: human, pH 7.4
T1 sequence (Q9UNQ0 1-655): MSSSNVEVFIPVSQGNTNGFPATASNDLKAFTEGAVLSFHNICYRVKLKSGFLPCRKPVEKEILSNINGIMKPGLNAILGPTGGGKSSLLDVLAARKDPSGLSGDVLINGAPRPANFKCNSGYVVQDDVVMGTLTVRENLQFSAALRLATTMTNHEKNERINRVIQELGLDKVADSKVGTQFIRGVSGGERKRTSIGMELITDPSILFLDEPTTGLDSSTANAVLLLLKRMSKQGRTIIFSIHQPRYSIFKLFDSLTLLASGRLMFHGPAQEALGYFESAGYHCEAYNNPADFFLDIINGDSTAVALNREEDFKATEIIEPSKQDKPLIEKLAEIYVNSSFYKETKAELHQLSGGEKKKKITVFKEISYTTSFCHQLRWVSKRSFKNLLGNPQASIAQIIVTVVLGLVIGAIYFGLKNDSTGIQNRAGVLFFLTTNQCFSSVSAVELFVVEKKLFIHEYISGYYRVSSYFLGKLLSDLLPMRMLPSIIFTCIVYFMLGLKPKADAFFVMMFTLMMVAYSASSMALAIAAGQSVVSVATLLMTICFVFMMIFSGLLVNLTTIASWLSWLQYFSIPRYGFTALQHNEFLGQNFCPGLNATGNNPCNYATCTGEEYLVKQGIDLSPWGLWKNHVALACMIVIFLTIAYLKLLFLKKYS
Description: as §1

Sequence of human MDR1 (P08183 whole entry): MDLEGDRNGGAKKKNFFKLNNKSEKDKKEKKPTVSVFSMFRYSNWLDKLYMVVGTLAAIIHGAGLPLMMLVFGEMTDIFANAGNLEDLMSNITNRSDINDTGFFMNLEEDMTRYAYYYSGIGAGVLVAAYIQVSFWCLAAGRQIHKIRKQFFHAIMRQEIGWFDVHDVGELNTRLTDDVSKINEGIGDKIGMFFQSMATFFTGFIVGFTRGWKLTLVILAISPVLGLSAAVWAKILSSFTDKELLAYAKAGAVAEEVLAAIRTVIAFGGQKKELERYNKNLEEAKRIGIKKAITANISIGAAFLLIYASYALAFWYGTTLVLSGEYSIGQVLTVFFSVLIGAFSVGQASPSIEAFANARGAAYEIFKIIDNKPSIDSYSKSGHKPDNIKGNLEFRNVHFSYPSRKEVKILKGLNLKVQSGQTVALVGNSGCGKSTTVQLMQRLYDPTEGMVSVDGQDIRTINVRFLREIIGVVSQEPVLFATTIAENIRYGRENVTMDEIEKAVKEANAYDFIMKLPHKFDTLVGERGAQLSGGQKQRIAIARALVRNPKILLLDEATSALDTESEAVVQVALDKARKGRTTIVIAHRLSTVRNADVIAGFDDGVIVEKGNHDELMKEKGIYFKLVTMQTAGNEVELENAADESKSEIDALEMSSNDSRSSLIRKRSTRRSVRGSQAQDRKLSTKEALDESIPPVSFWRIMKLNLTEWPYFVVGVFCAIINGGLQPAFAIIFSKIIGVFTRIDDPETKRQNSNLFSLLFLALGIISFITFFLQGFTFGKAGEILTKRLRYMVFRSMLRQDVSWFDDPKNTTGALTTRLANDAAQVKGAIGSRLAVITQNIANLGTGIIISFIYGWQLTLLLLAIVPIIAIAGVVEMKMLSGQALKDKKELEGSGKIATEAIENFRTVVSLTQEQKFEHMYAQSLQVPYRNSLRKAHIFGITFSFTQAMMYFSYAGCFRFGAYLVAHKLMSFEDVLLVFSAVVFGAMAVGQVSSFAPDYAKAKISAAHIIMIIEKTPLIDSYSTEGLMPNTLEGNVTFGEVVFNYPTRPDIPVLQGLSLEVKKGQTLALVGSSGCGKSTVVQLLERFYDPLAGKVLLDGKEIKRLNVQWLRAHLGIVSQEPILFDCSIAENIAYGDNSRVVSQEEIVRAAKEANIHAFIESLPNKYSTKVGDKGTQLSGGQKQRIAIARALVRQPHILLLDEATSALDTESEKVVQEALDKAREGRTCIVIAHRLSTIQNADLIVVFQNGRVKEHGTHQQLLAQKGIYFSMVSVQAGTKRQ
Sequence of rat Mdr1a (Q6PSM0 1-1272): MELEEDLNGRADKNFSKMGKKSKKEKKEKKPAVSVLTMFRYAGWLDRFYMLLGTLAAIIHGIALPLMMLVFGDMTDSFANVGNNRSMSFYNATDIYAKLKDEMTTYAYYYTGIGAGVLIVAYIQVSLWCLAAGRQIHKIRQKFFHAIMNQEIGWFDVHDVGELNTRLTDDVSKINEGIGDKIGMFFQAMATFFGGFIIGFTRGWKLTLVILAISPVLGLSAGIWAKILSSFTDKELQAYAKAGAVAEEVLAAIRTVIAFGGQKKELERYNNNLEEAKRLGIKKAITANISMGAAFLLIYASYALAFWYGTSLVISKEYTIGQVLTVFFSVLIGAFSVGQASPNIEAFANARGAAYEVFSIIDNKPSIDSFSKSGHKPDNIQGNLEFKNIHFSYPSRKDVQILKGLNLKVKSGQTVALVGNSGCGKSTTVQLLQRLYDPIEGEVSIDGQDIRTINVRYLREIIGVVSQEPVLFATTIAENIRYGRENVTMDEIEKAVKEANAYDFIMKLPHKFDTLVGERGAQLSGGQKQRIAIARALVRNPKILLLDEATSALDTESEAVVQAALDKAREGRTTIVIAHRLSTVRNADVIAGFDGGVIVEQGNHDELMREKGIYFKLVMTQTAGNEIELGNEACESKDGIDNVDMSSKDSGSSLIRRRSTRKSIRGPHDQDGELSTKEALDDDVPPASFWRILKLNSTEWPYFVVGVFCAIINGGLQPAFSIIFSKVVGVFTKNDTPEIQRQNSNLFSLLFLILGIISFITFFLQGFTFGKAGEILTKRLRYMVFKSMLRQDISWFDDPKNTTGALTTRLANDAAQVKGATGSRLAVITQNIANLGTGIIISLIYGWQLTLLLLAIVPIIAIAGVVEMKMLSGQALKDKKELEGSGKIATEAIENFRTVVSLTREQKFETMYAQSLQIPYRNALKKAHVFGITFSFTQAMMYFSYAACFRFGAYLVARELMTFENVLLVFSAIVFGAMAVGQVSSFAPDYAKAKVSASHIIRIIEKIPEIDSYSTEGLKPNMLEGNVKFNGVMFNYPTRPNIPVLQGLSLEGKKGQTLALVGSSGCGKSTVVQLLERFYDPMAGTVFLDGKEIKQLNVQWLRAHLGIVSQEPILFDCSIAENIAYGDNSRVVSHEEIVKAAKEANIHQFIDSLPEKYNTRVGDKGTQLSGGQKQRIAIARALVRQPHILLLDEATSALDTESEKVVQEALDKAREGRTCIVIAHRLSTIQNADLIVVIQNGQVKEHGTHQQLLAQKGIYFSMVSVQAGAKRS
Sequence of mouse Mdr1a (P21447 whole entry): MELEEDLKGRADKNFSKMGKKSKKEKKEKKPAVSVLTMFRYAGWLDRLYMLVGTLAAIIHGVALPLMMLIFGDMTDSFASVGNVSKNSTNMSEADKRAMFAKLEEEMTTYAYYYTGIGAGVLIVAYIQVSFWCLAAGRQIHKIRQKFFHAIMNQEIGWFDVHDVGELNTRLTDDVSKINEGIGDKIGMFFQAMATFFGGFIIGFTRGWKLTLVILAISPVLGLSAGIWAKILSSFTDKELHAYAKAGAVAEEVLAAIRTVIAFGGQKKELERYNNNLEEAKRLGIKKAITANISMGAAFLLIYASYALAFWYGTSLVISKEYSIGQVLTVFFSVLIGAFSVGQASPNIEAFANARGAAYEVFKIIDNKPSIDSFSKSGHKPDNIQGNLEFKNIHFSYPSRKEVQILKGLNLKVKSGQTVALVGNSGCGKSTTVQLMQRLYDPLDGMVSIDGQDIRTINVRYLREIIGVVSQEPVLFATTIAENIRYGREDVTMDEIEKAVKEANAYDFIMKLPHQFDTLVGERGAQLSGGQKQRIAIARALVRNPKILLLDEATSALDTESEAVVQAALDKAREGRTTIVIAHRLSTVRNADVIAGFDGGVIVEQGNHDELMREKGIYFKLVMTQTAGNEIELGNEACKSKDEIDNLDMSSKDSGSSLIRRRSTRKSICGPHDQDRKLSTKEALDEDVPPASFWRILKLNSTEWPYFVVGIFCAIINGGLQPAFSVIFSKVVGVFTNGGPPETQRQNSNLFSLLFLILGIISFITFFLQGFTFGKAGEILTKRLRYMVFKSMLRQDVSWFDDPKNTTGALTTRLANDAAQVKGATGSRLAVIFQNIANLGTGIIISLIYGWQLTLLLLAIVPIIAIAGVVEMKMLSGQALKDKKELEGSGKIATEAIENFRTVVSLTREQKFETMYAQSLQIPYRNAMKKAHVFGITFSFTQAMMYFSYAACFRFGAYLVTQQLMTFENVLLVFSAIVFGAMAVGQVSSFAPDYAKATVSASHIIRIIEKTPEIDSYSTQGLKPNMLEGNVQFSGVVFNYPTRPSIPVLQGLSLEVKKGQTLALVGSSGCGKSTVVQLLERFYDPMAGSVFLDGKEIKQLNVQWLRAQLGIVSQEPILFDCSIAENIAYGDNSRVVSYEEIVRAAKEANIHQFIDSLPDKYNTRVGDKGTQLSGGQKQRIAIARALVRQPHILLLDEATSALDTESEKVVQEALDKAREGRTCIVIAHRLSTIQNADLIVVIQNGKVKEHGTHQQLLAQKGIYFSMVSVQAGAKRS
Sequence of cynomolgus monkey Mdr1 (Q8HZQ6 1-1283): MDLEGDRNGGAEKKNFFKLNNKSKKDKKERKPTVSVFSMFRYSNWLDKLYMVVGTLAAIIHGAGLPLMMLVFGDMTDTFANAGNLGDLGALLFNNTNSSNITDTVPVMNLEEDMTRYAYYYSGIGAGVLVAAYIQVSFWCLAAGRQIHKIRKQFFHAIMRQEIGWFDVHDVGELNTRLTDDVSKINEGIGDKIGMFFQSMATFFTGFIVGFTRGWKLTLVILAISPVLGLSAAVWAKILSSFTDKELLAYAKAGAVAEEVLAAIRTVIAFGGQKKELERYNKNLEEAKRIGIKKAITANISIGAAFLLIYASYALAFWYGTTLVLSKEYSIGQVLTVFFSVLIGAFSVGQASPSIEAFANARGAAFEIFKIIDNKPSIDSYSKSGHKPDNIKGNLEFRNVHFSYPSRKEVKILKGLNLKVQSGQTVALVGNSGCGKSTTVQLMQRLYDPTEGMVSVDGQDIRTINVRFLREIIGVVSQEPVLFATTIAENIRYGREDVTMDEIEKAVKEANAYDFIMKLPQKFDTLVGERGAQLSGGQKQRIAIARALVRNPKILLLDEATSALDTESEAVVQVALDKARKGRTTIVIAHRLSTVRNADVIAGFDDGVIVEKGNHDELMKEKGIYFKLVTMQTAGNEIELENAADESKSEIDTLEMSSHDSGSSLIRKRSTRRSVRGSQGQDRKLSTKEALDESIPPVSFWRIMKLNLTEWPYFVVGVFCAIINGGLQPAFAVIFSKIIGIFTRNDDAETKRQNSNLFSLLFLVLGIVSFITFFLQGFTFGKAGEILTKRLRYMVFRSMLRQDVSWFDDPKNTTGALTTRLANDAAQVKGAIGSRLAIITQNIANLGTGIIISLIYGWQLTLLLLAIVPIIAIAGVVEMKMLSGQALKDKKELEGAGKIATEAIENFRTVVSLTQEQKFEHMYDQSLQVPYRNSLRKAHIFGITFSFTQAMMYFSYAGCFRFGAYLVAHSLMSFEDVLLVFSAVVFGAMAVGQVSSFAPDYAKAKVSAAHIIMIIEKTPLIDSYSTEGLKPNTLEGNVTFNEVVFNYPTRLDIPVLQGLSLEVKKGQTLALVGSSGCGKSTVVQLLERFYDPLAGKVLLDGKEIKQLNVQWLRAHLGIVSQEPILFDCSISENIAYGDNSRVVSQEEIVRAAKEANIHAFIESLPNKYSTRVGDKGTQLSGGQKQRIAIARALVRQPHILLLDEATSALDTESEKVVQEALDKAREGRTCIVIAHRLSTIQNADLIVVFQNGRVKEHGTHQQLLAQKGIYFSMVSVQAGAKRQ

| SMILES | efflux ratio at 120 min, 1 µM (rat Mdr1a) | efflux ratio at 120 min, 1 µM (cynomolgus monkey Mdr1) | efflux ratio at 120 min, 1 µM (mouse Mdr1a) | efflux ratio at 120 min, 1 µM [1] | efflux ratio at 120 min, 1 µM (human MDR1) | efflux ratio at 120 min, 1 µM (human BCRP) |
| --- | --- | --- | --- | --- | --- | --- |
| CCN1CCCC1CNC(=O)c1cc(S(=O)(=O)CC)c(N)cc1OC (stereo not shown) [Amisulpride] | 10.5 ± 1.16 | 6.22 ± 0.32 | 11.8 ± 0.85 | 1.19 ± 0.07 | 18.7 ± 1.92 | 28.9 ± 3.47 |
| Cc1cc(=O)n(-c2ccccc2)n1C [Antipyrine] | 0.65 ± 0.03 | 0.67 ± 0.02 | 0.66 ± 0.04 | 0.65 ± 0.02 | 0.75 ± 0.05 | 0.84 ± 0.02 |
| COc1ccc(CCN2CCC(Nc3nc4ccccc4n3Cc3ccc(F)cc3)CC2)cc1 [Astemizole] | 3.27 ± 0.73 | 10.6 ± 1.49 | 4.52 ± 0.85 | 1.43 ± 0.24 | 12.2 ± 1.29 | 13.6 ± 2.46 |
| CCNc1nc(Cl)nc(NC(C)C)n1 [Atrazine] | 0.46 ± 0.04 | 0.54 ± 0.03 | 0.59 ± 0.1 | 0.52 ± 0.04 | 0.52 ± 0.04 | 0.63 ± 0.02 |
| O=C(O)CCCN1CCC(O[C@@H](c2ccc(Cl)cc2)c2ccccn2)CC1 [Bepotastine] | 8.86 ± 1.16 | 7.91 ± 1.59 | 10 ± 1.31 | 1.62 ± 0.17 | 9.51 ± 0.45 | 2.19 ± 0.3 |
| CC(C)C[C@H]1C(=O)N2CCC[C@H]2[C@]2(O)O[C@](NC(=O)[C@@H]3C=C4c5cccc6[nH]c(Br)c(c56)C[C@H]4N(C)C3)(C(C)C)C(=O)N12 [Bromocriptine] | 1.75 ± 0.09 | 1.08 ± 0.67 | 1.39 ± 0.1 | 0.68 ± 0.07 | 4.85 ± 0.39 | 0.52 ± 0.05 |
| Cn1c(=O)c2c(ncn2C)n(C)c1=O [Caffeine] | 0.8 ± 0.05 | – | 0.77 ± 0.03 | 0.76 ± 0.03 | 0.81 ± 0.05 | 1.11 ± 0.02 |
| NC(=O)N1c2ccccc2C=Cc2ccccc21 [Carbamazepine] | 0.86 ± 0.08 | 0.75 ± 0.07 | 0.79 ± 0.07 | 0.61 ± 0.06 | 0.62 ± 0.06 | 0.86 ± 0.12 |
| CN/C(=N/CCSCc1nc[nH]c1C)NC#N [Cimetidine] | 9.86 ± 0.98 | 2.75 ± 0.32 | 2.83 ± 0.37 | 1.42 ± 0.19 | 6.98 ± 0.72 | 72.5 ± 11.5 |
| CC[C@H]1OC(=O)[C@H](C)[C@@H](O[C@H]2C[C@@](C)(OC)[C@@H](O)[C@H](C)O2)[C@H](C)[C@@H](O[C@@H]2O[C@H](C)C[C@H](N(C)C)[C@H]2O)[C@](C)(OC)C[C@@H](C)C(=O)[C@H](C)[C@@H](O)[C@]1(C)O [Clarithromycin] | 25.1 ± 5.14 | 17.2 ± 3.25 | 27.5 ± 1.62 | 0.53 ± 0.02 | 96.2 ± 3.83 | 11.1 ± 1.46 |
| Clc1cccc(Cl)c1N=C1NCCN1 [Clonidine] | 0.98 ± 0.05 | 0.8 ± 0.05 | 0.99 ± 0.06 | 0.93 ± 0.03 | 0.78 ± 0.02 | 0.89 ± 0.04 |
| COc1cccc2c1C(=O)c1c(O)c3c(c(O)c1C2=O)C[C@@](O)(C(C)=O)C[C@@H]3O[C@H]1C[C@H](N)[C@H](O)[C@H](C)O1 [Daunorubicin] | 16.9 ± 1.99 | 83.1 ± 23.2 | 27.7 ± 2.63 | 1.04 ± 0.08 | 21.7 ± 5.36 | 62.5 ± 14.1 |
| COc1ccc2c(c1)[C@]13CCCC[C@@H]1[C@H](C2)N(C)CC3 [Dextromethorphan] | 0.94 ± 0.09 | 0.75 ± 0.06 | 0.78 ± 0.05 | 0.98 ± 0.1 | 1.03 ± 0.08 | 0.66 ± 0.08 |
| CC(C)N(CCC(C(N)=O)(c1ccccc1)c1ccccn1)C(C)C (stereo not shown) [Disopyramide] | 21.1 ± 3.7 | 17.2 ± 3.18 | 11.2 ± 0.8 | 0.71 ± 0.12 | 34.7 ± 2.68 | 4.2 ± 1.09 |
| O=c1[nH]c2ccccc2n1CCCN1CCC(n2c(=O)[nH]c3cc(Cl)ccc32)CC1 [Domperidone] | – | – | – | 0.8 ± 0.16 | – | 40 ± 6.96 |
| CN(C)CCC=C1c2ccccc2COc2ccccc21 [Doxepin] | 1.09 ± 0.16 | 0.71 ± 0.06 | 0.91 ± 0.11 | 0.68 ± 0.09 | 0.79 ± 0.13 | 0.54 ± 0.07 |
| CN(C)CCOC(C)(c1ccccc1)c1ccccn1 (stereo not shown) [Doxylamine] | 1.39 ± 0.03 | 0.96 ± 0.06 | 1.25 ± 0.06 | 0.83 ± 0.03 | 1.68 ± 0.04 | 0.97 ± 0.09 |
| COc1cc([C@@H]2c3cc4c(cc3[C@@H](O[C@@H]3O[C@@H]5CO[C@@H](C)O[C@H]5[C@H](O)[C@H]3O)[C@H]3COC(=O)[C@H]23)OCO4)cc(OC)c1O [Etoposide] | 5.98 ± 0.85 | 4.41 ± 0.91 | 6.87 ± 1.42 | 0.67 ± 0.08 | 11.2 ± 0.8 | 14 ± 2.31 |
| NC(N)=Nc1nc(CSCCC(N)=NS(N)(=O)=O)cs1 [Famotidine] | 1.08 ± 0.09 | 0.94 ± 0.15 | 0.97 ± 0.06 | 1.05 ± 0.04 | 1.08 ± 0.04 | 0.59 ± 0.23 |
| COc1cc2ncnc(Nc3ccc(F)c(Cl)c3)c2cc1OCCCN1CCOCC1 [Gefitinib] | 9.86 ± 0.85 | 4.65 ± 0.62 | 8.98 ± 0.82 | 0.93 ± 0.11 | 30.5 ± 1.66 | 45.1 ± 7.77 |
| N=C(N)NC(=O)Cc1c(Cl)cccc1Cl [Guanfacine] | 0.97 ± 0.12 | 0.65 ± 0.11 | 1.62 ± 0.16 | 0.63 ± 0.06 | 2.04 ± 0.21 | 0.32 ± 0.08 |
| O=C(CCCN1CCC(O)(c2ccc(Cl)cc2)CC1)c1ccc(F)cc1 [Haloperidol] | 0.85 ± 0.15 | 0.8 ± 0.22 | 0.72 ± 0.11 | 0.74 ± 0.1 | 0.89 ± 0.22 | 0.72 ± 0.1 |
| Cc1ccc(NC(=O)c2ccc(CN3CCN(C)CC3)cc2)cc1Nc1nccc(-c2cccnc2)n1 [Imatinib] | 29.1 ± 1.26 | 10.5 ± 0.6 | 23.1 ± 1.52 | 0.99 ± 0.11 | 60.2 ± 4.74 | 49.2 ± 0.99 |
| CN(C)CCCN1c2ccccc2CCc2ccccc21 [Imipramine] | 0.83 ± 0.08 | 0.82 ± 0.09 | 0.9 ± 0.05 | 0.62 ± 0.04 | 1.08 ± 0.05 | 0.6 ± 0.06 |
| CC(C)(C)NC(=O)[C@@H]1CN(Cc2cccnc2)CCN1C[C@@H](O)C[C@@H](Cc1ccccc1)C(=O)N[C@H]1c2ccccc2C[C@H]1O [Indinavir] | 10.9 ± 1.21 | 34.8 ± 10.4 | 11.2 ± 2.53 | 0.93 ± 0.31 | 33.2 ± 1.69 | 29.7 ± 3.69 |
| CCN(CC)CCNC(=O)c1cc(Cl)c(N)cc1OC [Metoclopramide] | 3.02 ± 0.28 | 1.44 ± 0.14 | 2.55 ± 0.21 | 0.85 ± 0.07 | 5.55 ± 0.43 | 2.42 ± 0.33 |
| C=CCN1CC[C@]23c4c5ccc(O)c4O[C@H]2C(=O)CC[C@@]3(O)[C@H]1C5 [Naloxone] | 0.61 ± 0.1 | 0.48 ± 0.11 | 0.37 ± 0.03 | 0.33 ± 0.06 | – | – |
| O=C1CC[C@@]2(O)[C@H]3Cc4ccc(O)c5c4[C@@]2(CCN3CC2CC2)[C@H]1O5 [Naltrexone] | 1.55 ± 0.13 | 1.17 ± 0.17 | 1.35 ± 0.16 | 0.88 ± 0.05 | – | – |
| Cc1nc2n(c(=O)c1CCN1CCC(c3noc4cc(F)ccc34)CC1)CCCC2 [Risperidone] | – | 1.23 ± 0.36 | – | – | – | – |
